From ChEMBL document CHEMBL1140693, “4,5-diarylisoxazole Hsp90 chaperone inhibitors: potential therapeutic agents for the treatment of cancer” (J Med Chem, 2008) come the findings set out here.

Structures are written as SMILES.

Series [1] in a line: AUClast in human HCT116 cells bearing NCr athymic mouse at 4 mg/kg, cassette dosing. The series is classed as ADME, organism-based, HCT-116. More on the design: time 0 - last, dose 4 mg/kg. The conditions noted are these: in vivo.
Series [2] in a line: Apparent terminal-phase volume of distribution (Vz/F) in human HCT116 cells bearing NCr athymic mouse at 4 mg/kg, cassette dosing. The conditions noted are these: in vivo.
Series [3] can be described thus: Apparent clearance in human HCT116 cells bearing NCr athymic mouse at 4 mg/kg, cassette dosing. The conditions noted are these: in vivo. More on the design: dose 4 mg/kg. The series is classed as ADME, organism-based, HCT-116.
Series [4] can be described thus: Growth inhibition of human U87MG cells by SRB assay. The conditions noted are these: U-87 MG. The series is classed as functional, U-87MG ATCC.
A further series has as its system DU-145. In words: Growth inhibition of human DU145 cells by SRB assay. The series is classed as functional. (In SRB staining, fixed cells bind dye roughly in proportion to their protein.)
Series [5] is described as follows: Terminal half life in human HCT116 cells bearing NCr athymic mouse at 4 mg/kg, cassette dosing. The series is classed as ADME, organism-based, HCT-116. Also on record: dose 4 mg/kg. The conditions noted are these: in vivo, read-out: t1/2 lambda z (converted).
Series [6] in a line: Growth inhibition of human PC3M cells by SRB assay. The conditions noted are these: PC-3M. The series is classed as functional.
Series [7] can be described thus: Tmax in human HCT116 cells bearing NCr athymic mouse at 4 mg/kg, cassette dosing. It counts as ADME, organism-based, HCT-116. Also on record: dose 4 mg/kg. Particulars: in vivo.
Series [8] is described as follows: Cmax in human HCT116 cells bearing NCr athymic mouse at 4 mg/kg, cassette dosing. It counts as ADME, organism-based, HCT-116. Also on record: dose 4 mg/kg. Particulars: in vivo.
Another series concerns SF-268. Put plainly: Growth inhibition of human SF268 cells by SRB assay. The series is classed as functional.
The test system of series [9] is HCT-116. Put plainly: cells. The conditions noted are these: Homo sapiens, HCT-116, 24 h.
Description: Growth inhibition of human HCT116 cells after 24 hrs by SRB assay
The subject of a further series is SK-MEL-28. Put plainly: Growth inhibition of human SKMel28 cells by SRB assay. It counts as functional.
Series [10] has as its system HCT-116. In words: Inhibition of tumor growth in human HCT116 cells bearing mouse assessed as tumor weight at 50 mg/kg, ip qd after 12 days relative to control. The conditions noted are these: HCT-116, ip, 288 h.

Broadly, the AUC(0-t) is the area under the concentration-time curve up to a stated or last time point. Low readings indicate low exposure, high ones high exposure. In general, CL/F refers to clearance divided by bioavailability, as obtained after extravascular dosing. As usually defined, the GI50 is the concentration that inhibits growth by half. Broadly, the Tmax is the time from dosing to the highest level. The term Cmax denotes the maximum level reached in the sampled fluid or tissue. Take `CCNC(=O)c1noc(-c2cc(Cl)c(O)cc2O)c1-c1ccc(OC)cc1`: the AUC(0-t) in series [1] amounted to 1.73 µM·h. The Vz/F in series [2] came out at 0.432 L. The CL/F in series [3] is 1.27 mL/min. Further, the concentration for 50% growth inhibition (GI50) in series [4] stood at 28 nM; with DU-145 it was 230 nM; in [6], 220 nM; with SF-268, 34 nM; in the series with HCT-116 [9], 120 nM; with SK-MEL-28, 45 nM. In addition, the half-life in series [5] is 3.9 h. Moreover, in series [7], the Tmax is 1 h. Moreover, the highest concentration (Cmax) in series [8] is 482 nM.

As a reminder, the T/C is the ratio of treated to control. `CCNC(=O)c1noc(-c2cc(C(C)C)c(O)cc2O)c1-c1ccc(CN2CCOCC2)cc1` [LUMINESPIB] gave an area under the curve AUC(0-t) in series [1] of 1.72 µM·h. The Vz/F in series [2] was 0.478 L. Moreover, in series [3], the CL/F is 0.583 mL/min. In addition, the GI50 turned out to be 8 nM in series [4]; 5 nM with DU-145; 6 nM in [6]; 6 nM with SF-268; 5 nM with SK-MEL-28. Further, the half-life in series [5] was 9.5 h. In addition, the time to peak (Tmax) in [7] stood at 1 h. Moreover, in series [8], the concentration peaked (Cmax) at 385 nM. In the series with HCT-116 [10], the T/C at 50 mg/kg stood at 49.8%.
